# Test results published in publication PMC5900025, “Naphthoquinone Derivatives as Scaffold to Develop New Drugs for Tuberculosis Treatment” (Frontiers in Microbiology, 2018).
# Like-named read-outs stand apart in the source and are kept apart here.
# How the values were obtained:
# Assay type in all cases: cell-based
# [1] = test system: M. tuberculosis pan-susceptible H37Rv (ATCC 27294); experiment: microbe, parasite or virus in culture; settings: REMA, 7 days at 37°C
# [2] = test system: three M. tuberculosis strains (H37Rv, INHR, RMPR); experiment: microbe, parasite or virus in culture; settings: Mycobacterium tuberculosis, stated for all three strains together
# [3] = test system: J774A.1 macrophage cell line (ATCC TIB-67); experiment: Cytotoxicity assay (resazurin); settings: Mus musculus, J774.A1
# [4] = Mycobacterium tuberculosis, 168 h, read-out: MIC
# [5] = J774A.1 cells, concentration maintaining viability of 50% of the cells
# [6] = Mycobacterium tuberculosis, 168 h
Structure (SMILES),"MIC [1, 4] [µM]",MIC [2] [µM],"IC50 [3, 5] [µM]","MIC [1, 6] [µM]",MIC ([1]; read-out: MIC) [µM],IC50 [3] [µM]
"CC1(C)CCC2=C(O1)C(=O)c1ccccc1C2=O [Compound 2, 2,2-Dimethyl-3,4-dihydro-2H-benzo[g]chromene-5, 10-dione]",103,103 to 207,285,–,–,–
"CO[C@H]1/C=C/O[C@@]2(C)Oc3c(C)c(O)c4c(O)c(c(/C=N/N5CCN(C)CC5)c(O)c4c3C2=O)NC(=O)/C(C)=C\C=C\[C@H](C)[C@H](O)[C@@H](C)[C@@H](O)[C@@H](C)[C@H](OC(C)=O)[C@@H]1C [RIF, rifampicin, reference compound]",0.608,–,> 2490,–,–,–
"CC1(C)CC2=C(O1)C(=O)c1ccccc1C2=O [Compound 3, 2,2-Dimethyl-2,3-dihydronaphtho[2,3-b]furan-4,9-dione]",54.8,54.8,> 877,–,–,–
"O=C1C=C(Nc2ccccc2)C(=O)c2ccccc21 [Compound 6, 2-(Phenylamino)naphthalene-1,4-dione]",–,–,> 803,110,100.4,–
"O=C1C(Cl)=C(Cl)C(=O)c2ccccc21 [Compound 1, 2,3-Dichloronaphthalene-1,4-dione]",111,111,–,–,–,103
"C=CCOC1=CC(=O)c2ccccc2C1=O [Compound 4, 2-(Allyloxy)naphthalene-1,4-dione]",–,–,173,58.4,–,–
"NC1=CC(=O)c2ccccc2C1=O [Compound 5, 2-Aminonaphthalene-1,4-dione]",72.2,–,–,–,–,> 1160
"NNC(=O)c1ccncc1 [INH, isoniazid, reference compound]",0.438,–,3730,–,–,–
